Data on 25 compounds can be found in patent publication US11066414B2, “Cot modulators and methods of use thereof” (Gilead Sciences, Inc., priority 2015, dated 2021).

For orientation: IC50 means the concentration that gives 50% inhibition.

The target in the first assay is Human Cot (Homo sapiens (Human), UniProt P41279). Put plainly: High Throughput Cot Biochemical Assay. The conditions noted are these: IC50 HTRF, Cot HTRF (TR-FRET) biochemical assay. On the technique in general: In TR-FRET formats the signal depends on donor and acceptor labels being close together.
Chain of Human Cot (P41279 30-397): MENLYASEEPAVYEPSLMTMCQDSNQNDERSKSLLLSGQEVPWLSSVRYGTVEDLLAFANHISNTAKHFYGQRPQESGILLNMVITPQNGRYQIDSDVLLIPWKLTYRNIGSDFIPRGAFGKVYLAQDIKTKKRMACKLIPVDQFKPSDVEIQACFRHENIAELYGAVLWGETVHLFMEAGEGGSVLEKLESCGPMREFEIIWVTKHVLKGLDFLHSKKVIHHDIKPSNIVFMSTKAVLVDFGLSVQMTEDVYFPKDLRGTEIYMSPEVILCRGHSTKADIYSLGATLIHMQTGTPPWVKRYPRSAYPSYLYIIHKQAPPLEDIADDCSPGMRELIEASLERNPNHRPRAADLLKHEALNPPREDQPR
The compound `CC(C)(C)OC(=O)N1CCC(n2cc([C@@H](Nc3cc(Cl)c4ncc(C#N)c(Nc5ccc(F)c(Cl)c5)c4c3)c3ccsc3)nn2)CC1` [Example 394, tert-butyl (S)-4-(4-(((8-chloro-4-((3-chloro-4-fluorophenyl)amino)-3-cyanoquinolin-6-yl)amino)(thiophen-3-yl)methyl)-1H-1,2,3-triazol-1-yl)piperidine-1-carboxylate] came in with an IC50 of 147 nM.

`Cn1cc(C(Nc2cc(Cl)c3ncc(C#N)c(Nc4ccc(F)c(Cl)c4)c3c2)c2cccnc2)nn1` (stereo not shown) [Example 395, 8-chloro-4-((3-chloro-4-fluoro-phenyl)amino)-6-(((1-methyl-1H-1,2,3-triazol-4-yl)(pyridin-3-yl)methyl)amino)quinoline-3-carbonitrile] yielded an IC50 of 4 nM.

`CCN1CCC(n2cc(C(Nc3cc(Cl)c4ncc(C#N)c(Nc5ccc(F)c(Cl)c5)c4c3)c3cn(C)nn3)nn2)CC1` (stereo not shown) [Example 396, 8-chloro-4-((3-chloro-4-fluoro-phenyl)amino)-6-(((1-(1-ethyl-piperidin-4-yl)-1H-1,2,3-triazol-4-yl)(1-methyl-1H-1,2,3-triazol-4-yl)methyl)amino)quinoline-3-carbonitrile]: the half-inhibitory concentration (IC50) was determined as 43 nM.

On to `Cn1cc(C(Nc2cc(Cl)c3ncc(C#N)c(Nc4ccc(F)c(Cl)c4)c3c2)c2cn(C3CCNCC3)nn2)nn1` (stereo not shown) [Example 397, 8-chloro-4-((3-chloro-4-fluoro-phenyl)amino)-6-(((1-methyl-1H-1,2,3-triazol-4-yl)(1-(piperidin-4-yl)-1H-1,2,3-triazol-4-yl)methyl)amino)-quinoline-3-carbonitrile], for which half-maximal inhibition (IC50) was put at 46 nM.

The compound `N#Cc1cnc2c(Cl)cc(NC(c3cccnc3)c3cn([C@@H]4CCN(C(=O)OCc5ccccc5)C4)nn3)cc2c1Nc1ccc(F)c(Cl)c1` (stereo partly drawn) [Example 400, benzyl (3R)-3-(4-(((8-chloro-4-((3-chloro-4-fluorophenyl)amino)-3-cyanoquinolin-6-yl)amino)(pyridin-3-yl)methyl)-1H-1,2,3-triazol-1-yl)pyrrolidine-1-carboxylate] returned a half-maximal inhibitory concentration (IC50) of 119 nM.

As to `N#Cc1cnc2c(Cl)cc(NC(c3cccnc3)c3cn([C@@H]4CCNC4)nn3)cc2c1Nc1ccc(F)c(Cl)c1` (stereo partly drawn) [Example 401, 8-chloro-4-((3-chloro-4-fluoro-phenyl)amino)-6-((pyridin-3-yl(1-((R)-pyrrolidin-3-yl)-1H-1,2,3-triazol-4-yl)methyl)amino)quinoline-3-carbonitrile], the IC50 was determined as 10 nM.

Compound `CCN1CC[C@@H](n2cc(C(Nc3cc(Cl)c4ncc(C#N)c(Nc5ccc(F)c(Cl)c5)c4c3)c3cccnc3)nn2)C1` (stereo partly drawn) [Example 402, 8-chloro-4-((3-chloro-4-fluoro-phenyl)amino)-6-(((1-((R)-1-ethylpyrrolidin-3-yl)-1H-1,2,3-triazol-4-yl)(pyridin-3-yl)methyl)-amino)quinoline-3-carbonitrile] registered an IC50 of 19 nM.

In the case of `N#Cc1cnc2c(Cl)cc(NC(c3cccnc3)c3cn(C4CCN(C(=O)OCc5ccccc5)CC4)nn3)cc2c1Nc1ccc(F)c(Cl)c1` (stereo not shown) [Example 404, benzyl 4-(4-(((8-chloro-4-((3-chloro-4-fluorophenyl)amino)-3-cyanoquinolin-6-yl)amino)(pyridin-3-yl)methyl)-1H-1,2,3-triazol-1-yl)piperidine-1-carboxylate], the IC50 amounted to 232 nM.

The compound `Cn1ncc2c([C@H](Nc3cc(Cl)c4ncc(C#N)c(NCC(C)(C)C)c4c3)c3cn(C4CC4)nn3)cccc21` [Example 423, (S)-8-chloro-6-(((1-cyclopropyl-1H-1,2,3-triazol-4-yl)(1-methyl-1H-indazol-4-yl)methyl)amino)-4-(neopentylamino)-quinoline-3-carbonitrile] had a half-inhibitory concentration (IC50) of 3 nM.

In turn, `CC(C)(C)CNc1c(C#N)cnc2c(C#N)cc(N[C@H](c3cn(C4(C(F)F)CC4)nn3)c3cccc4ncsc34)cc12` [Example 424, (S)-6-((benzo[d]thiazol-7-yl(1-(1-(difluoromethyl)cyclopropyl)-1H-1,2,3-triazol-4-yl)methyl)amino)-4-(neopentylamino)quinoline-3,8-dicarbonitrile] showed a concentration for half-maximal inhibition (IC50) of 2 nM.

Consider `CC(C)(C)CNc1c(C#N)cnc2c(C#N)cc(N[C@H](c3cn(C4(C(F)(F)F)CC4)nn3)c3csc4c3CCN(C3COC3)C4)cc12` [Example 429, (S)-4-(neopentylamino)-6-(((6-(oxetan-3-yl)-4,5,6,7-tetrahydrothieno[2,3-c]pyridin-3-yl)(1-(1-(trifluoromethyl)cyclopropyl)-1H-1,2,3-triazol-4-yl)methyl)amino)-quinoline-3,8-dicarbonitrile], for which the IC50 was determined as 2 nM.

`CC(C)(C)CNc1c(C#N)cnc2c(Cl)cc(N[C@H](c3cn(C4(C)CC4)nn3)c3cccc4ncsc34)cc12` [Example 434, (S)-6-((benzo[d]thiazol-7-yl(1-(1-methylcyclopropyl)-1H-1,2,3-triazol-4-yl)methyl)amino)-8-chloro-4-(neopentylamino)quinoline-3-carbonitrile] showed an IC50 of 2 nM.

With `CC(C)(C)CNc1c(C#N)cnc2c(Cl)cc(N[C@H](c3cn(C4(C(F)F)CC4)nn3)c3cccc4c3CNC4)cc12` [Example 445, (S)-8-chloro-6-(((1-(1-(difluoromethyl)-cyclopropyl)-1H-1,2,3-triazol-4-yl)(isoindolin-4-yl)methyl)amino)-4-(neopentylamino)quinoline-3-carbonitrile], the IC50 came to 2 nM.

`CC(C)(C)CNc1c(C#N)cnc2c(Cl)cc(N[C@H](c3cn(C4(CO)CC4)nn3)c3cccc4ncsc34)cc12` [Example 458, (S)-6-((benzo[d]thiazol-7-yl(1-(1-(hydroxymethyl)cyclopropyl)-1H-1,2,3-triazol-4-yl)methyl)amino)-8-chloro-4-(neopentylamino)quinoline-3-carbonitrile] showed a half-maximal inhibitory concentration (IC50) of 4 nM.

`CC(C)(C)CNc1c(C#N)cnc2c(C#N)cc(N[C@H](c3cn(C4CC4)nn3)c3cccc4ncccc34)cc12` [Example 467, (S)-6-(((1-cyclopropyl-1H-1,2,3-triazol-4-yl)(quinolin-5-yl)methyl)amino)-4-(neopentylamino)quinoline-3,8-dicarbonitrile] returned a 50% inhibitory concentration (IC50) of 2 nM.

The compound `Cc1nc(F)ccc1[C@H](Nc1cc(Cl)c2ncc(C#N)c(NCC(C)(C)C)c2c1)c1cn(C2(C#N)CC2)nn1` [Example 476, (S)-8-chloro-6-(((1-(1-cyanocyclopropyl)-1H-1,2,3-triazol-4-yl)(6-fluoro-2-methylpyridin-3-yl)methyl)amino)-4-(neopentylamino)-quinoline-3-carbonitrile] gave a half-inhibitory concentration (IC50) of 3 nM.

Turning to `Cc1nc(F)ccc1[C@H](Nc1cc(Cl)c2ncc(C#N)c(NCC(C)(C)C)c2c1)c1cn(C2(C(N)=O)CCC2)nn1` [Example 478, (S)-1-(4-(((8-chloro-3-cyano-4-(neopentylamino)quinolin-6-yl)amino)(6-fluoro-2-methylpyridin-3-yl)methyl)-1H-1,2,3-triazol-1-yl)cyclobutane-1-carboxamide], the midpoint of inhibition, the IC50, lay at 1 nM.

With `Cn1cnc2cccc([C@H](Nc3cc(Cl)c4ncc(C#N)c(NCC(C)(C)C)c4c3)c3cn(C4(C(F)F)CC4)nn3)c21` [Example 499, (S)-8-chloro-6-(((1-(1-(difluoromethyl)-cyclopropyl)-1H-1,2,3-triazol-4-yl)(1-methyl-1H-benzo[d]imidazol-7-yl)methyl)amino)-4-(neopentylamino)-quinoline-3-carbonitrile], the IC50 was determined as 3 nM.

For `Cc1nc(F)ccc1[C@H](Nc1cc(F)c2ncc(C#N)c(NCC(C)(C)C)c2c1)c1cn(C2(C(F)F)CC2)nn1` [Example 514, (S)-6-(((1-(1-(difluoromethyl)cyclopropyl)-1H-1,2,3-triazol-4-yl)(6-fluoro-2-methylpyridin-3-yl)methyl)amino)-8-fluoro-4-(neopentylamino)quinoline-3-carbonitrile], the IC50 was 4 nM.

For `CC(C)(C)CNc1c(C#N)cnc2c(C#N)cc(N[C@H](c3cn(C4(C(F)(F)F)CC4)nn3)c3cccc4ccncc34)cc12` [Example 535, (S)-6-((isoquinolin-8-yl(1-(1-(trifluoro-methyl)cyclopropyl)-1H-1,2,3-triazol-4-yl)methyl)amino)-4-(neopentylamino)-quinoline-3,8-dicarbonitrile], the half-maximal inhibitory concentration (IC50) worked out at 2 nM.

`CCc1ncccc1[C@H](Nc1cc(Cl)c2ncc(C#N)c(NCC(C)(C)C)c2c1)c1cn(C2(C(F)F)CC2)nn1` [Example 604, (S)-8-chloro-6-(((1-(1-(difluoromethyl)cyclo-propyl)-1H-1,2,3-triazol-4-yl)(2-ethylpyridin-3-yl)methyl)amino)-4-(neopentylamino)-quinoline-3-carbonitrile] showed an IC50 of 3 nM.

The assay is the same for the next values; noted with them: read-out: IC50 HTRF; Cot HTRF (TR-FRET) biochemical assay.
With `N#Cc1cnc2c(Cl)cc(N[C@@H](c3ccsc3)c3cn(C4CCNCC4)nn3)cc2c1Nc1ccc(F)c(Cl)c1` [Example 393, (S)-8-chloro-4-t-((3-chloro-4-fluoro-phenyl)amino)-6-(((1-(piperidin-4-yl)-1H-1,2,3-triazol-4-yl)(thiophen-3-yl)methyl)amino)quinoline-3-carbonitrile], the 50% inhibitory concentration (IC50) stood at 5 nM.

For the compound `Cn1cc(C(Nc2cc(Cl)c3ncc(C#N)c(Nc4ccc(F)c(Cl)c4)c3c2)c2cn(C3CCN(C(C)(C)C)CC3)nn2)nn1` (stereo not shown) [Example 399, 6-(((1-(1-(tert-butyl)piperidin-4-yl)-1H-1,2,3-triazol-4-yl)(1-methyl-1H-l, 2,3-triazol-4-yl)methyl)amino)-8-chloro-4-((3-chloro-4-fluorophenyl)-amino)quinoline-3-carbonitrile], the half-maximal inhibitory concentration (IC50) stood at 58 nM.

As to `Cc1n[nH]c2cccc([C@H](Nc3cc(C#N)c4ncc(C#N)c(NCC(C)(C)C)c4c3)c3cn(C4(C(F)F)CC4)nn3)c12` [Example 571], the half-maximal inhibitory concentration (IC50) amounted to 2 nM.

In the case of `Cc1nc(F)ccc1[C@H](Nc1cc(Cl)c2ncc(C#N)c(NCC(C)(C)C)c2c1)c1cn(C(F)(F)CO)nn1` [Example 584, (S)-8-chloro-6-(((1-(i, 1-difluoro-2-hydroxyethyl)-1H-1,2,3-triazol-4-yl)(6-fluoro-2-methylpyridin-3-yl)methyl)amino)-4-(neopentylamino)quinoline-3-carbonitrile], the 50% inhibitory concentration (IC50) came to 2 nM.
